Laboratory results from patent publication US4517179A, “Rapid dissolving, uniform drug compositions and their preparation” (priority 1984, dated 1985).
In brackets after ≈: the same amount, converted by molar mass.

Experiments:
[1] = Particle size distribution by screen analysis; assay type: physicochemical; conditions: for particle size d16%: 16 weight percent; for particle size d50%: 50 weight percent; for particle size d84%: 84 weight percent
Protocol: where d is the particle diameter in μm at the indicated percentage by weight and σg is the geometric standard deviation.
The particle size distributions of drugs and excipients were determined by a screen analysis technique. A 5 gm sample of each test material was placed on the top screen of a set of six US standard screens of an Allen Bradley Sonic Sifter. The screens were pulsed for 15 minutes. The following screens were used: 80 mesh (180 μm), 100 mesh (150 μm), 140 mesh (106 μm), 200 mesh (75 μm), 270 mesh (53 μm) and 400 mesh (38 μm). The weights of the fractions retained on the screens were obtained. Particle sizes (d) at specific weight percents (16, 50, and 84) were obtained from a log probability plot of the data as described by Edmundson (Advances in Pharmaceutical Sciences, Bean, H.S. et al. Editors, Academic, London, England p. 95, 1967). These particle sizes are described as d16, d50, and d84.
The slopes of the lines from the plots were calculated to give the geometric standard deviation (σg).

[2] = result from metolazone usage; cited from earlier work
Water solubility = assay type: physicochemical; conditions: for solubility: water
[3] = 0.01N hydrochloric acid; cited from earlier work
[4] = listed as fine-milled metolazone
[5] = listed as monocrystalline metolazone

Nc1nc(N)c2nc(-c3ccccc3)c(N)nc2n1 [triamterene]
particle size d16% [1]: 76 μm | particle size d50% [1]: 41 μm | particle size d84% [1]: 17 μm

Cc1ccccc1N1C(=O)c2cc(S(N)(=O)=O)c(Cl)cc2NC1C (centres unmarked) [metolazone, 2-methyl-3-o-tolyl-6-sulfamyl-7-chloro-1,2,3,4-tetrahydro-4-quinazolinone]
side effects [2]: hypokalemia | water solubility (Water solubility; 25° C.): approximately 60.3 mcg/ml | solubility (Water solubility; 25° C.): ~60 µg/mL (≈ 164 µM) | solubility (Water solubility; 36° C.): ~100 µg/mL (≈ 273 µM) | particle size d16% [1, 4]: 155 μm | particle size d16% ([1]; listed as milled metolazone): 94 μm | particle size d16% [1, 5]: 460 μm | particle size d50% [1, 4]: 86 μm | particle size d50% ([1]; listed as milled metolazone): 56 μm | particle size d50% [1, 5]: 190 μm | particle size d84% [1, 4]: 48 μm | particle size d84% ([1]; listed as milled metolazone): 34 μm | particle size d84% [1, 5]: 83 μm

Cc1ccccc1N1C(=O)c2cc(S(N)(=O)=O)c(Cl)cc2NC1C (centres unmarked) [amorphous and metastable metolazone]
dissolution rate relative to the stable modification (mp. 267°-270° C.) [3]: about 8 times faster
